Experimental data published in publication PMC5653735, “Comparison of the oxidation of carcinogenic aristolochic acid I and II by microsomal cytochromes P450 in vitro: experimental and theoretical approaches” (Monatshefte Fur Chemie, 2017).

Target: T1, CYP3A1 (Rattus norvegicus, UniProt P04800)
T1 construct: recombinant rat CYP3A1 in Supersomes (microsomes of baculovirus-transfected insect cells); with NADPH:CYP oxidoreductase (POR) and/or cytochrome b5
T1 sequence (P04800 1-504): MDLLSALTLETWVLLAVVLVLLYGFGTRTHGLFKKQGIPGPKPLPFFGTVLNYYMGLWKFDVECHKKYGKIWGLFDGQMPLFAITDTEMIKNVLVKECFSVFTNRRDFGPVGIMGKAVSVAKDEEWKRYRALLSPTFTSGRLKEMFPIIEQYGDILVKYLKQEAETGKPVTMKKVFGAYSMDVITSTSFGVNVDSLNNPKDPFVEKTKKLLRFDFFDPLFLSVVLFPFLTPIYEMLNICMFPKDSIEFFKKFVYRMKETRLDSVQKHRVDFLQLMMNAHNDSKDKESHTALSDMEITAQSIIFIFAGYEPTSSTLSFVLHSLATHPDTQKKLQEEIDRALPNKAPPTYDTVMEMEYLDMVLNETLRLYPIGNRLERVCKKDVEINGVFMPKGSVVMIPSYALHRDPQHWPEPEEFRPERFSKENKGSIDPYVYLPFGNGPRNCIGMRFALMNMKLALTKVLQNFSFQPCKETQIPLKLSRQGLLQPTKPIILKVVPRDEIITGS
Experiment: HPLC of AAIa formed from AAII by recombinant CYP in insect-cell microsomes
Format: cell-based

SMILES: O=C(O)c1cc2c(c3c1c([N+](=O)[O-])cc1ccccc13)OCO2 [AAII, 6-nitrophenanthro[3,4-d]-1,3-dioxole-5-carboxylic acid]
- HPLC of AAIa formed from AAII by recombinant CYP in insect-cell microsomes: only rat CYP of the 3A subfamily, CYP3A1, but not CYP3A2, was capable of oxidizing AAII to AAIa
